Experimental data published in PubChem BioAssay (NCI).
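A five-concentration, 48-hour dose response in 96-well plates underlies each endpoint, interpolated linearly between surrounding concentrations. GI50 marks 50% less growth. At the TGI there is no net growth.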

Legend:
Assay in all cases: inhibition of tumour cell growth, NCI panel, 48 h
EKVX NSCLC = system: EKVX NSCLC
HCC-2998 colon = system: HCC-2998 colon
LOX IMVI melanoma = system: LOX IMVI melanoma
NCI-H522 lung = system: NCI-H522 lung
RXF 393 renal = system: RXF 393 renal
SF-268 CNS = system: SF-268 CNS
SK-MEL-2 melanoma = system: SK-MEL-2 melanoma
SNB-75 CNS = system: SNB-75 CNS

| Compound | GI50 (EKVX NSCLC) [µM] | TGI (EKVX NSCLC) [µM] | GI50 (HCC-2998 colon) [µM] | TGI (HCC-2998 colon) [µM] | GI50 (LOX IMVI melanoma) [µM] | TGI (LOX IMVI melanoma) [µM] | GI50 (NCI-H522 lung) [nM] | TGI (NCI-H522 lung) [µM] | GI50 (RXF 393 renal) [nM] | TGI (RXF 393 renal) [µM] | GI50 (SF-268 CNS) [nM] | TGI (SF-268 CNS) [µM] | GI50 (SK-MEL-2 melanoma) [µM] | TGI (SK-MEL-2 melanoma) [µM] | GI50 (SNB-75 CNS) [nM] | TGI (SNB-75 CNS) [µM] |
| --- | --- | --- | --- | --- | --- | --- | --- | --- | --- | --- | --- | --- | --- | --- | --- | --- |
| CCOc1ccc(NC(=O)c2cc3ccccc3cc2O)cc1 | > 100 | > 100 | > 100 | > 100 | 58.1 | > 100 | 59100 | > 100 | 19000 | 40.2 | 64800 | > 100 | 76.7 | > 100 | 34900 | > 100 |
| N=C1N=C(N)S/C1=C\c1ccc2ncccc2c1 |  |  | > 25 | > 25 | > 25 | > 25 | > 25000 | > 25 | > 25000 | > 25 | > 25000 | > 25 | > 25 | > 25 | > 16300 | > 25 |
| CC(=O)N1N=C(c2ccc(Nc3nc(Nc4ccc(F)cc4)nc(Nc4ccc(Cl)cc4)n3)cc2)CC1c1ccc(N(C)C)cc1 (stereo unspecified) | 8.06 | > 90.9 | 2.26 | 7.45 | 3.85 | 12.8 | 3790 | > 58.3 | 1630 | 5.33 | 12100 | 49.2 |  |  | 3020 | 20.3 |
| C[C@@H]1CC[C@@H]2[C@@H]1[C@H](OC(=O)c1ccc3ccccc3c1)[C@]1(C3CCCCC3)C[C@@H](OC(=O)CO)[C@@]2(C)O1 | 11.4 | 26.7 | 11.8 | 28.1 | 13.1 | 28.1 | 10300 | 24.1 | 70.2 | 8.25 | 542 | 19.5 | 15.3 | 30.8 | 546 | 18.8 |
| CCOC(=O)C(O)Cc1cnc2ccccc2n1 (stereo unspecified) |  | > 100 |  | > 100 |  | > 100 |  | > 100 |  | > 100 |  | > 100 |  | > 100 |  | > 100 |
| COc1ccc(C2SCC(=O)N2NC(=O)C(O)c2ccccc2)cc1 (stereo unspecified) | > 100 | > 100 | > 100 | > 100 | > 100 | > 100 | > 100000 | > 100 | > 100000 | > 100 | > 100000 | > 100 | > 100 | > 100 | 80900 | > 100 |
| N#CSCC1CC(O)(c2ccccc2)CC(c2ccc(Cl)cc2)O1 (stereo unspecified) | 4.19 | 17.7 | 8.56 | 21.5 | 1.59 | 2.95 | 1360 | 2.83 | 1940 | 3.72 | 1800 | 3.29 | 1.89 | 3.78 | 3580 | 13.3 |
| O=C(Nc1nc(-c2ccccc2)cs1)c1cc(O)c(O)c(O)c1 |  |  | 10.1 | 36.3 | 3.62 | 32.1 | 337 | 1.23 | 3550 | 19.7 | 2720 | 31.9 |  |  | 1920 | > 100 |
| C[n+]1cc2cc3c(cc2c2ccccc21)OCO3 |  |  | 3.81 | 19.2 | 9.11 | 53.8 | 2170 | 6.23 | 16400 | > 100 | 480 | 2.57 | 3.51 | 11.3 | 2220 | 9.6 |
| CC(=O)Oc1ccccc1C(=O)NCCC[Se]C#N |  |  | 3.54 | 14.9 | 1.51 | 5.26 | 1620 | 3.5 | 2670 | 6.7 | 1840 | 4.06 | 2.55 | 5.64 | 1880 | 4.92 |
| COc1cc2oc(-c3cccc(C(=O)Nc4ccc(C)cc4)c3)cc(=O)c2c(OC)c1OC |  |  | 3.53 | 17.8 | 0.32 | 3.97 | 2670 | 9.31 | 775 | 5.91 | 5610 | > 100 | 3.33 | 9.55 | 1160 | 5.38 |
| C/C(=C1/N=C(c2ccccc2)OC1=O)c1ccccc1 |  | > 100 |  | > 100 |  | > 100 |  | > 100 |  |  |  | > 100 |  | > 100 |  | > 100 |
